Source: US20230398130A1, “METHODS AND COMPOSITIONS FOR DIFFERENTIATING STEM CELLS” (Massachusetts Institute of Technology, priority 2020, published 2023)

What was measured:
ISC-enriched organoids [1] = test: Primary screen, 384-well 2.5-D organoid differentiation (ENR+CD, 6 days): carbachol-induced lysozyme secretion (LYZ.S); format: cell-based, murine; conditions: vs plate median
Source text: (§1) High-throughput screening.

ISC-enriched organoids [2] = test: Primary screen, 384-well 2.5-D organoid differentiation (ENR+CD, 6 days, Target Selective Inhibitor Library, vs whole-plate median): ATP (CellTiter-Glo 3D, CTG); conditions: for Dose.FC.CTG (log 2 fold change, ATP): vs plate median
ISC-enriched organoids [3] = test: Primary screen, 384-well 2.5-D organoid differentiation (ENR+CD, 6 days): basal lysozyme secretion (LYZ.NS); format: cell-based, murine; conditions: for Dose.FC.LYZ.NS (log 2 fold change, basal lysozyme secretion): vs plate median
Source text: as §1

SMILES | Dose.FC.LYZ.S (log 2 fold change, carbachol-induced lysozyme secretion) (ISC-enriched organoids [1]; dose 0.08 uM) | Dose.FC.LYZ.S (log 2 fold change, carbachol-induced lysozyme secretion) (ISC-enriched organoids [1]; dose 0.40 uM) | Dose.FC.LYZ.S (log 2 fold change, carbachol-induced lysozyme secretion) (ISC-enriched organoids [1]; dose 2.00 uM) | Dose.FC.LYZ.S (log 2 fold change, carbachol-induced lysozyme secretion) (ISC-enriched organoids [1]; dose 10.00 uM) | Z.CTG (standard z score) (ISC-enriched organoids [2]; dose 0.08 uM) | Dose.FC.CTG (log 2 fold change, ATP) (ISC-enriched organoids [2]; dose 0.08 uM) | Z.CTG (standard z score) (ISC-enriched organoids [2]; dose 0.40 uM) | Dose.FC.CTG (log 2 fold change, ATP) (ISC-enriched organoids [2]; dose 0.40 uM) | Z.CTG (standard z score) (ISC-enriched organoids [2]; dose 2.00 uM) | Dose.FC.CTG (log 2 fold change, ATP) (ISC-enriched organoids [2]; dose 2.00 uM) | Z.CTG (standard z score) (ISC-enriched organoids [2]; dose 10.00 uM) | Dose.FC.CTG (log 2 fold change, ATP) (ISC-enriched organoids [2]; dose 10.00 uM) | Z.LYZ.NS (standard z score) (ISC-enriched organoids [3]; dose 0.08 uM) | Dose.FC.LYZ.NS (log 2 fold change, basal lysozyme secretion) (ISC-enriched organoids [3]; dose 0.08 uM) | Z.LYZ.NS (standard z score) (ISC-enriched organoids [3]; dose 0.40 uM) | Dose.FC.LYZ.NS (log 2 fold change, basal lysozyme secretion) (ISC-enriched organoids [3]; dose 0.40 uM) | Z.LYZ.NS (standard z score) (ISC-enriched organoids [3]; dose 2.00 uM) | Dose.FC.LYZ.NS (log 2 fold change, basal lysozyme secretion) (ISC-enriched organoids [3]; dose 2.00 uM) | Z.LYZ.NS (standard z score) (ISC-enriched organoids [3]; dose 10.00 uM) | Dose.FC.LYZ.NS (log 2 fold change, basal lysozyme secretion) (ISC-enriched organoids [3]; dose 10.00 uM)
N#C[C@@H]1CCCN1C(=O)CNC12CC3CC(CC(O)(C3)C1)C2 [Vildagliptin (LAF-237)] | 0.099 | 0.113 | 0.038 | 0.013 | 0.553 | 0.232 | 0.547 | 0.229 | 0.358 | 0.150 | 0.811 | 0.339 | 1.285 | 0.148 | 2.004 | 0.230 | 1.478 | 0.170 | 0.846 | 0.097
c1ccc(NCc2ccc(CNc3ccccn3)cc2)nc1 [WZ811] | 0.296 | 0.007 | 0.074 | 0.019 | 0.334 | 0.140 | −0.082 | −0.034 | 0.184 | 0.077 | 0.104 | 0.044 | 1.337 | 0.154 | 0.162 | 0.019 | 0.815 | 0.094 | 0.045 | 0.005
CCC(=O)Nc1cccc(Oc2nc(Nc3ccc(N4CCN(C)CC4)cc3OC)ncc2Cl)c1 [WZ4003] | 0.117 | −0.034 | −0.035 | −0.142 | 0.896 | 0.375 | 0.413 | 0.173 | 0.180 | 0.076 | −0.043 | −0.018 | 0.644 | 0.074 | −0.359 | −0.041 | −0.151 | −0.017 | −0.850 | −0.098
Cc1cc(-c2ccc(CC(=O)Nc3ccc(-c4cccnc4)cc3)cc2)ccn1 [Wnt-C59 (C59)] | −0.242 | −0.281 | −0.313 | −0.301 | −1.366 | −0.572 | −1.461 | −0.611 | −1.498 | −0.627 | −1.465 | −0.613 | −1.424 | −0.163 | −1.588 | −0.182 | −1.724 | −0.198 | −1.666 | −0.191
COCC[n+]1c2c(n(Cc3cnccn3)c1C)C(=O)c1ccccc1C2=O.[Br-] [YM155 (Sepantronium Bromide)] | 0.172 | −0.039 | −0.137 | −0.210 | 0.531 | 0.222 | −0.198 | −0.083 | −1.100 | −0.460 | −2.316 | −0.970 | 0.995 | 0.114 | −0.266 | −0.031 | −0.714 | −0.082 | −0.839 | −0.096
C[C@H](NC(=O)Cc1cc(F)cc(F)c1)C(=O)N[C@@H]1C(=O)N(C)c2ccccc2-c2ccccc21 [YO-01027] | 0.105 | −0.058 | −0.020 | −0.184 | 0.528 | 0.221 | −1.135 | −0.475 | −1.363 | −0.571 | −2.464 | −1.032 | 0.443 | 0.051 | 0.739 | 0.085 | −0.699 | −0.080 | −1.369 | −0.157
Cc1cc(C)nc(NS(=O)(=O)c2ccc(NC(=S)NC(=O)COc3ccc(Br)cc3Cl)cc2)n1 [ZCL278] | −0.107 | 0.077 | −0.079 | −0.080 | −2.303 | −0.964 | 0.044 | 0.018 | −0.545 | −0.228 | −0.247 | −0.104 | −0.729 | −0.084 | −0.325 | −0.037 | 0.218 | 0.025 | 0.130 | 0.015
